Target: 27-mer model of the bacterial A site region, full ribonucleotide R
Assay: Binding to 27-mer A site model as full ribonucleotide (R)
Conditions: RNA R
Method: The 27-mer model of a segment of the bacterial A site region has been prepared as a full ribonucleotide (see FIG. 27, compound R), and as a chimeric 2′-O-methylribonucleotide containing three deoxyadenosine residues (see FIG. 27, compound C). RNAs R and C have been prepared using conventional phosphoramidite chemistry on solid support. Phosphoramidites were purchased from Glen Research and used as 0.1 M solutions in acetonitrile. RNA R was prepared following the procedure given in Wincott, et al., Nucl. Acids Res., 1995, 23, 2677-2684, the disclosure of which is incorporated herein by reference in its entirety. RNA C was prepared using standard coupling cycles, deprotected, and precipitated from 10 M NH4OAc. The aminoglycoside paromomycin binds to both R and C with kD values of 0.25 and 0.45 micromolar, respectively. The reported kD values are around 0.2 μM. […]
The mass spectrum obtained from a 5 μM solution of C mixed with 125 nM paromomycin (FIG. 28A) contains [M-5H]5− ions from free C at m/z 1783.6 and the [M-5H]5− ions of the paromomycin-C complex at m/z 1907.3. […] Signals from the [M-4H]4− ions of C and the complex are detected at m/z 2229.8 and 2384.4, respectively. […] Fragment ions are detected at m/z 1005.6 (w6)2−, 1065.8 (a7-B)2−, 1162.6 (w7)2−, 1756.5 (M-Ad)5−, 2108.9 (w21-Ad)3−, 2153.4 (a20-B)3−, 2217.8 (w21)3−, and 2258.3 (a21-B)3−. […]

SMILES: NC[C@@H]1O[C@H](O[C@H]2[C@@H](O)[C@H](O[C@@H]3[C@@H](O)[C@H](N)C[C@H](N)[C@H]3O[C@H]3O[C@H](CO)[C@@H](O)[C@H](O)[C@H]3N)O[C@@H]2CO)[C@H](N)[C@@H](O)[C@@H]1O [paromomycin]
- Kd: 250 nM

— patent US6656690B2, “Mass spectrometric methods for biomolecular screening” (priority 1998, dated 2003)
